The values below come from ChEMBL document CHEMBL1141471, “Implications for selectivity of 3,4-diarylquinolinones as p38alphaMAP kinase inhibitors” (Bioorg Med Chem Lett, 2008).

For assay [1], the target named is T1, Mitogen-activated protein kinase 14 (Homo sapiens, UniProt Q16539). In words: Inhibition of p38alpha assessed as residual activity at 10 uM relative to control.
The target in assay [2] is T1, Mitogen-activated protein kinase 14. The assay is described as follows: Inhibition of p38alpha.
A short description of assay [3]: Inhibition of Aurora C; values are per cent of control.
Assay [4] addresses Mitogen-activated protein kinase 10 (Homo sapiens) (UniProt P53779). The assay is described as follows: Residual activity of JNK3 at 10 uM relative to control.
For assay [5], the target named is T2, Mitogen-activated protein kinase 12 (Homo sapiens) (UniProt P53778).
T2 sequence (whole entry): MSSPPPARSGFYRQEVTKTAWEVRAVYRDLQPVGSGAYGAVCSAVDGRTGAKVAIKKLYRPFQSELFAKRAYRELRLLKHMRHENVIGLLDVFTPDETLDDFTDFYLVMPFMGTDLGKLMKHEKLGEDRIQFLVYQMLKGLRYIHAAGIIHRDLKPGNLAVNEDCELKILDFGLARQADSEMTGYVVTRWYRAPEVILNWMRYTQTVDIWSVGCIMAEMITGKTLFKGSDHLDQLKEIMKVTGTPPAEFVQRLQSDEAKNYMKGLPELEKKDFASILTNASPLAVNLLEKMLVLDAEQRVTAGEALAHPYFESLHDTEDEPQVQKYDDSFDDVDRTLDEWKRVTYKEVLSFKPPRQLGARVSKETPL
In words: Residual activity of p38-gamma at 10 uM relative to control. In kind it is functional.

For assay [6], the target named is T3, Mitogen-activated protein kinase 15 (Homo sapiens) (UniProt Q8TD08).
T3 sequence (whole entry): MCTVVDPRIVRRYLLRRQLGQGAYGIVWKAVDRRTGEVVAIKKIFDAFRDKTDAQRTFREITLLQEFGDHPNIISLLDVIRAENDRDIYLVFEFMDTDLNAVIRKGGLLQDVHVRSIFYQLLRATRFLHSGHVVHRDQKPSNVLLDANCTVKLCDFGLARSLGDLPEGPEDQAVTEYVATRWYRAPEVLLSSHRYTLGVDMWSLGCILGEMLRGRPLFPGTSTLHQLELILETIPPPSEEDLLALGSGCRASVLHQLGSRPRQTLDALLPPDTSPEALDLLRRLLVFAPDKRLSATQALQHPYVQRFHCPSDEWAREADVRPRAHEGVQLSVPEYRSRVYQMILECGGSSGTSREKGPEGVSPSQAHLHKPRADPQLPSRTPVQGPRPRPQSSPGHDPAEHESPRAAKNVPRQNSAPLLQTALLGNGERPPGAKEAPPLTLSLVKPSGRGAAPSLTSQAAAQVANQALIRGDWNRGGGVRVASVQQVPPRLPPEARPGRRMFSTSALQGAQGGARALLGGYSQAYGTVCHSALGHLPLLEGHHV
The assay is described as follows: Residual activity of ERK8 at 10 uM relative to control.

Assay [7] has as its target Mitogen-activated protein kinase 3 (Homo sapiens) (UniProt P27361). The assay is described as follows: Inhibition of ERK1 assessed as residual activity at 10 uM relative to control.
Assay [8] concerns the target T4, Mitogen-activated protein kinase 9 (Homo sapiens, UniProt P45984). In words: Residual activity of JNK2 at 10 uM relative to control.
Target sequence in this assay (P45984 whole entry, looked up): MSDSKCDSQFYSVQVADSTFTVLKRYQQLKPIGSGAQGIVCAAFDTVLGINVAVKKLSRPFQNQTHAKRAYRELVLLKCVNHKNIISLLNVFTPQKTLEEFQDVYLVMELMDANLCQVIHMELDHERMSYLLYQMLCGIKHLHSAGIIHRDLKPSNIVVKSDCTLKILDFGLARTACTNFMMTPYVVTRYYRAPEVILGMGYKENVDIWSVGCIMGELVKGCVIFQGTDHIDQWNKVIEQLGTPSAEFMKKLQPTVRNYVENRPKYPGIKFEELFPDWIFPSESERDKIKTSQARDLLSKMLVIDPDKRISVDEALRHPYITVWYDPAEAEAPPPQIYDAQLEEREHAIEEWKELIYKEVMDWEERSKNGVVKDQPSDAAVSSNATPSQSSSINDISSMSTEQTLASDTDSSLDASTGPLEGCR
Assay [9] concerns the target Mitogen-activated protein kinase 8 (Homo sapiens) (UniProt P45983). In words: Residual activity of JNK1 at 10 uM relative to control.
In assay [10] the target is Mitogen-activated protein kinase 11 (Homo sapiens) (UniProt Q15759). The assay is described as follows: Residual activity of p38beta at 10 uM relative to control.
Sequence of Mitogen-activated protein kinase 11 (Homo sapiens) (Q15759 whole entry): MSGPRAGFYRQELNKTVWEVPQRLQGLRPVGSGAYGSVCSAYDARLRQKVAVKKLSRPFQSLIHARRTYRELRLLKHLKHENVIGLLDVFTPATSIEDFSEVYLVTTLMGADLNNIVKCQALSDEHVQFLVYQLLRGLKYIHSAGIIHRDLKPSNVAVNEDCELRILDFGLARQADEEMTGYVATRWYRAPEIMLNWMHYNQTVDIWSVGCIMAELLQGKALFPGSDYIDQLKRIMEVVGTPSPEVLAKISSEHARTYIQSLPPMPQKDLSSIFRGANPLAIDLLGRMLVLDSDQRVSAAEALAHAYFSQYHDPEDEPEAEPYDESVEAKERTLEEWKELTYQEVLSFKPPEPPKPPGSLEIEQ
The target of assay [11] is Mitogen-activated protein kinase 1 (Homo sapiens) (UniProt P28482). In words: Residual activity of ERK2 at 10 uM relative to control.
Sequence of Mitogen-activated protein kinase 1 (Homo sapiens) (P28482 whole entry): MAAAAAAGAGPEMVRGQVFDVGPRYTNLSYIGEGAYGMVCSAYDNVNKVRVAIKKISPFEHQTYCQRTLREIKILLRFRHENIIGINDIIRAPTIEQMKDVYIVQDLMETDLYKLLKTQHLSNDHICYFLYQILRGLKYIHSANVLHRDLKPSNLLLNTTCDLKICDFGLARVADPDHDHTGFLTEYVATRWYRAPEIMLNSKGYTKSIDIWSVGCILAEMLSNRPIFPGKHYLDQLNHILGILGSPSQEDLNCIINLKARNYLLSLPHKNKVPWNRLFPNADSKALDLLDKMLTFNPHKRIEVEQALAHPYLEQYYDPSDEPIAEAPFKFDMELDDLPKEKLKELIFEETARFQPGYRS
The target in assay [12] is Aurora kinase B (Homo sapiens) (UniProt Q96GD4). The assay is described as follows: Inhibition of Aurora B; values are per cent of control.
Sequence of Aurora kinase B (Homo sapiens) (Q96GD4 whole entry): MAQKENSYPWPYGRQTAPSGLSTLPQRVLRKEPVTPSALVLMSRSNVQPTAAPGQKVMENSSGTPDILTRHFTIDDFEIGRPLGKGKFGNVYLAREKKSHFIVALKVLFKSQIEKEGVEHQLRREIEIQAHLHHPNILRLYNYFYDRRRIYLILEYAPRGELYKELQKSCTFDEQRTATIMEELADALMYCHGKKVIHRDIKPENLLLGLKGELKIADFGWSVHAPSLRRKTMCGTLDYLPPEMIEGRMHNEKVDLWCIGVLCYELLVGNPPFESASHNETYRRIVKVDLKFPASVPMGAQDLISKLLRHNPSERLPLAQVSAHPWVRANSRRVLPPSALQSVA
Assay [13] addresses T5, Mitogen-activated protein kinase 13 (Homo sapiens) (UniProt O15264).
T5 sequence (whole entry): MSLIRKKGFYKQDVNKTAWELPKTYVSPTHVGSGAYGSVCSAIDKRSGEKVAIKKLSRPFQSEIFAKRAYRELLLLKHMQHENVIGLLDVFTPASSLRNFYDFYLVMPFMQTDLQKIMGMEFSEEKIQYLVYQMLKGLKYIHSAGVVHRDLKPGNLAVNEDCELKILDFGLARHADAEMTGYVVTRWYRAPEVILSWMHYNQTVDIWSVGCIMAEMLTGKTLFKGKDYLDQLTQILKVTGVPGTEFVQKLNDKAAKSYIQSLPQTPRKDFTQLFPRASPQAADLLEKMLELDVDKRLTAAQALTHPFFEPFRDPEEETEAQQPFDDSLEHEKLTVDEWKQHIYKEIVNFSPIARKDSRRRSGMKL
In words: Residual activity of p38delta at 10 uM relative to control.

Assay [14] in a line: Inhibition of PKA; values are per cent of control.
For assay [15], the target named is T6, Serine/threonine-protein kinase D1 (Homo sapiens) (UniProt Q15139).
T6 sequence (whole entry): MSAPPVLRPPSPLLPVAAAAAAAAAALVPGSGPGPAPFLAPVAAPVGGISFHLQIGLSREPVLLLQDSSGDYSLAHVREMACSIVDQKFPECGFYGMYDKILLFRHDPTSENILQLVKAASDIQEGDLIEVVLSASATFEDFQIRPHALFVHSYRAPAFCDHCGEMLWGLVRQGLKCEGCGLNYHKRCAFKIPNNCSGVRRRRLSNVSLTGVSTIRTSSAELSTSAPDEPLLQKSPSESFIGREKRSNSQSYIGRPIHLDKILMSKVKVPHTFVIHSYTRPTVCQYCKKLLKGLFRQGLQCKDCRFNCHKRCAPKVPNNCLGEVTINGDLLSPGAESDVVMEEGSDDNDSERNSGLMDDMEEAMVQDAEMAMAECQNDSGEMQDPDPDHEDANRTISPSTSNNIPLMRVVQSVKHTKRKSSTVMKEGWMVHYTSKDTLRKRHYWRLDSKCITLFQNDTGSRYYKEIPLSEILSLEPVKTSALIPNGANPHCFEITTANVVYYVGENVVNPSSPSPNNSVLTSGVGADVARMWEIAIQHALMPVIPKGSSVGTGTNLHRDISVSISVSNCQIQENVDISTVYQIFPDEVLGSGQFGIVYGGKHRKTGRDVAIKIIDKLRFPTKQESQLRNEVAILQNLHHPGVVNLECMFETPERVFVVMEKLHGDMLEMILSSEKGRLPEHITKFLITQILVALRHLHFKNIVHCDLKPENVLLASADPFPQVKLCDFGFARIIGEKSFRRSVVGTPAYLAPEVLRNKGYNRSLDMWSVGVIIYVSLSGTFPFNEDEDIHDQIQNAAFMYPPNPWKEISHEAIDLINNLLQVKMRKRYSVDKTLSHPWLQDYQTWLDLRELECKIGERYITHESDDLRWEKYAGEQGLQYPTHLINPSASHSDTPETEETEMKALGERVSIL
The assay is described as follows: Inhibition of PKD1; values are per cent of control.

The target of assay [16] is Tyrosine-protein kinase Lck (Homo sapiens) (UniProt P06239). In words: Inhibition of Lck; values are per cent of control.
Sequence of Tyrosine-protein kinase Lck (Homo sapiens) (P06239 2-509 limits assumed): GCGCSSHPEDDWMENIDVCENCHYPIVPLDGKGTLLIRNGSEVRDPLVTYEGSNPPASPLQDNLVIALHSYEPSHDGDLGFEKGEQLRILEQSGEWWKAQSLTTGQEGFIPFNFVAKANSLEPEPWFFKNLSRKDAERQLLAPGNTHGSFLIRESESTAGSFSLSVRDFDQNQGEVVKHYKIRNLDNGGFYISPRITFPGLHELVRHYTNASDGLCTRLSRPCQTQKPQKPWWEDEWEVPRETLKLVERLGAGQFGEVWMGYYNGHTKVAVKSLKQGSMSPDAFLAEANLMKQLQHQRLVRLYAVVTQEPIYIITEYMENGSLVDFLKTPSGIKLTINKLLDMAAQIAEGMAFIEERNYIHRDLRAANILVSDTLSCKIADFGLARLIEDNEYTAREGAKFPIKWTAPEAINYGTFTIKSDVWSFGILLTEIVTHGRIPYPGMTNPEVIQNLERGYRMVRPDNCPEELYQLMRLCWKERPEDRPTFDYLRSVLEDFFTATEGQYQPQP
Assay [17] concerns the target T4, Mitogen-activated protein kinase 9. In words: Inhibition of JNK2.
Target sequence in this assay (P45984 whole entry): as the sequence (P45984 whole entry, looked up) above

T1 sequence (Q16539 whole entry): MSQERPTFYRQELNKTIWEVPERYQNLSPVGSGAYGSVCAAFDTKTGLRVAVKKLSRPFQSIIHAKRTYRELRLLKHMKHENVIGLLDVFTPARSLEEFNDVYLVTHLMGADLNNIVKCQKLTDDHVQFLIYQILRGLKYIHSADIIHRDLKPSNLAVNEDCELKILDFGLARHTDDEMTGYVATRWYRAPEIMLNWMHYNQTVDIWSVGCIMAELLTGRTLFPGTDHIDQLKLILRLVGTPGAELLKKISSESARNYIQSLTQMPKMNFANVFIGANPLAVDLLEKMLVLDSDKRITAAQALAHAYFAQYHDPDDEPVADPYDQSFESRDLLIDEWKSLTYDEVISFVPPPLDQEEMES
Sequence of Mitogen-activated protein kinase 3 (Homo sapiens) (P27361 whole entry): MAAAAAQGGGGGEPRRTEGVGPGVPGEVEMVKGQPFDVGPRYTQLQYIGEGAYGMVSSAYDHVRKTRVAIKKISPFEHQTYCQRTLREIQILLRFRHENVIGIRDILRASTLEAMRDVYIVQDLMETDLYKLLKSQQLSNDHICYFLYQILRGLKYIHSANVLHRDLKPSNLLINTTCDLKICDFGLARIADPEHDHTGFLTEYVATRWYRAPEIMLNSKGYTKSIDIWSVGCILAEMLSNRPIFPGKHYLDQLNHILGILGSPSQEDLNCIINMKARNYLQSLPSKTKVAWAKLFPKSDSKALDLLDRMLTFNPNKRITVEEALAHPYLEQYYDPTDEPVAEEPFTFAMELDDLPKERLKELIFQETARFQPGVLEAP
Sequence of Mitogen-activated protein kinase 10 (Homo sapiens) (P53779 whole entry): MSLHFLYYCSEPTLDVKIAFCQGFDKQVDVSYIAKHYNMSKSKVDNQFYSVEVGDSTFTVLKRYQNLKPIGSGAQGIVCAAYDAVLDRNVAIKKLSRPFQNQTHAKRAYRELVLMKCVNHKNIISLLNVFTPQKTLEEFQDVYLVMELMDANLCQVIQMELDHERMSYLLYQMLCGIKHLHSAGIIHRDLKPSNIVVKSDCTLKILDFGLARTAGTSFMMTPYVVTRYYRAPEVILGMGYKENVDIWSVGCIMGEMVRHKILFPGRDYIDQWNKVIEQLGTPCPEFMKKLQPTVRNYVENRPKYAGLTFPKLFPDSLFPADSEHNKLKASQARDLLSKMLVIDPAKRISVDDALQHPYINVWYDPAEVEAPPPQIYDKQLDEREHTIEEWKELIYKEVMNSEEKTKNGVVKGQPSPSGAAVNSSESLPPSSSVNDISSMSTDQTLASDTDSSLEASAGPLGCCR
Sequence of Mitogen-activated protein kinase 8 (Homo sapiens) (P45983 whole entry): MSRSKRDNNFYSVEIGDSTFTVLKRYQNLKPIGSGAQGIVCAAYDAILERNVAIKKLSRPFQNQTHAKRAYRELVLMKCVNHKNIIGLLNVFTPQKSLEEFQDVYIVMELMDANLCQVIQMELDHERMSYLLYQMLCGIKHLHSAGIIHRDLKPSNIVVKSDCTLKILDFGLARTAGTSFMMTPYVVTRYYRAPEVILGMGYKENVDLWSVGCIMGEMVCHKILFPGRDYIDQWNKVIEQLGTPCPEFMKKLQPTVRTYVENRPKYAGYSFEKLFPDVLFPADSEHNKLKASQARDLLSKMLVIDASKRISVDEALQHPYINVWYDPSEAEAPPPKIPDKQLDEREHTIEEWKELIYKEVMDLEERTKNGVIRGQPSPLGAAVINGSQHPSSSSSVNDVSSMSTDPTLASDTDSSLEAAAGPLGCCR

As for `CCC(O)C(O)n1c(=O)c(-c2ccc(F)cc2)c(-c2ccncc2)c2ccccc21` (stereo not drawn), the Activity in assay [1] came to 57%.

As to `Cc1ccccc1-c1c(-c2ccncc2)c2ccccc2[nH]c1=O`, the IC50 – broadly, the concentration needed to halve the response being measured – in assay [2] worked out at 9.7 µM.

On to `CC(C)c1noc(-c2ccc(F)cc2)c1-c1ccncc1`, for which the residual activity (in general, the activity still measured, relative to the control) in assay [3] was 35%; in assay [12], 22%. In addition, the Activity in assay [4] is 63%; in [1], 50%; in [5], 94%; in assay [6], 88%; in [7], 87%; in assay [8], 59%. The Activity in assay [9] stood at 98%; in assay [10] it was 98%; in assay [11], 88%; in assay [13], 95%.

Take `O=c1[nH]c2ccccc2c(-c2ccccc2)c1-c1ccccc1`: in assay [1], the Activity turned out to be 64%.

Regarding `CC1(C)OCC(Cn2c(=O)c(-c3ccc(F)cc3)c(-c3ccncc3)c3ccccc32)O1` (stereo not drawn), the Activity in [1] amounted to 55%.

In the case of `CC(C)c1onc(-c2ccc(F)cc2)c1-c1ccncc1`, the residual activity is 28% in assay [14], 60% in assay [15] and 42% in [16]. Moreover, the Activity was found to be 28% in [4]; 20% in [1]; 84% in assay [5]; 84% in assay [6]; 92% in assay [7]; 13% in [8]. Moreover, the Activity amounted to 67% in [9], 95% in [10], 86% in assay [11] and 86% in assay [13]. The same molecule yielded an IC50 in assay [17] of 1.28 µM.

In assay [2], `Cn1c(=O)c(-c2ccc(F)cc2)c(-c2ccncc2)c2ccccc21` gave an IC50 of 5.2 µM.

As to `CCn1c(=O)c(-c2ccc(F)cc2)c(-c2ccncc2)c2ccccc21`, in assay [2], the IC50 worked out at 2.2 µM.

In the case of `CCOc1nc2ccccc2c(-c2ccncc2)c1-c1ccc(F)cc1`, the Activity in [1] was determined as 66%.

As for `CC#Cn1c(=O)c(-c2ccc(F)cc2)c(-c2ccncc2)c2ccccc21`, in [2], the IC50 was found to be 3.1 µM.

In the case of `CC#COc1nc2ccccc2c(-c2ccncc2)c1-c1ccc(F)cc1`, the Activity in assay [1] stood at 79%.

For `CCC(O)C(O)n1c(=O)c(-c2ccccc2C)c(-c2ccncc2)c2ccccc21` (stereo not drawn), the Activity in assay [1] is 80%.

For `O=c1cc(-c2ccncc2)c2ccccc2[nH]1`, the Activity in assay [1] was 78%.

In [2], `O=c1c(-c2ccc(F)cc2)c(-c2ccncc2)c2ccccc2n1CCc1ccccc1` returned an IC50 of 8.2 µM.

`O=c1[nH]c2ccccc2c(-c2ccncc2)c1-c1ccc(F)cc1`: the Activity in assay [4] stood at 106%; in [1], 53%; in [5] it was 89%; in assay [6], 73%; in assay [7], 84%; in assay [8] it was 89%. Also, the Activity came out at 86% in [9], 97% in [10], 93% in [11] and 91% in assay [13].
